Test results from PubChem BioAssay AID2060498 (Molecular Pharmacology Branch, DTP, NCI, 2025).

System: 171881-019-R-J1-PDC tumor spheroids, viability
Experiment: Anticancer human tumor 171881-019-R-J1-PDC patient-derived invasive breast carcinoma cell line growth inhibition [GQUAD]
Conditions: spheroids with HUVEC and MSC; for IC50: curve of first compound; for viability, T/C: stronger effect = lower value; active = viability on the fitted dose curve at most 10% of control; inactive = the rest
From the text: DNA G-quadruplex Stabilizer Agents in Combinations in Complex Spheroids
A high-throughput screen of multi-cell type tumor spheroids was designed to identify active combinations of DNA G-quadruplex stabilizer agents and targeted small molecules. Complex spheroids include a stromal component modeled by human endothelial cells (HUVEC) and fibroblasts modeled by human mesenchymal stem cells (MSCs). The concentration ranges selected for each drug and investigational agent were based upon clinically achievable concentrations if the clinical Cmax of the agent was known.
Compounds. The drugs and investigational agents: pidnarulex (CX-5461; NSC782164), APTO-253 (NSC789042), BRACO-19 (NSC847499), peposertib (NSC802822), ceralasertib (NSC780249), elimusertib (NSC800525), camonsertib (NSC841442), AZD-1390 (NSC803789), olaparib (NSC753686), talazoparib (NSC767125), ART-558 (NSC835418), sotorasib (NSC818433), MRTX-1133 (NSC836407), SN-38 (NSC673596), topotecan (NSC609699), etoposide (NSC141540), doxorubicin (NSC123127), gemcitabine (NSC613327), 5-fluorouracil (NSC19893), paclitaxel (NSC125973), vemurafenib (NSC761431), panobinostat (NSC761190), R-306465 (JNJ-16241199; NSC773264), adavosertib (NSC754352), TP-3654 (NSC805149), carboplatin (NSC241240), KSQ-4279 (NSC840948), and staurosporine (NSC755774) were obtained from the National Cancer Institute (NCI) Developmental Therapeutics Program Chemical Repository (34). The FDA-approved anticancer drug set is available from the NCI Developmental Therapeutics Program. […] The stock solutions were prepared in dimethyl sulfoxide (DMSO, Sigma-Aldrich, St. Louis, MO, cat. D2650) at 800-fold the tested concentration and stored at -70 degrees C prior to their use. All drugs and investigational agents were tested over a range starting from a high concentration at or near the clinical Cmax and decreasing in half-log increments. If the clinical Cmax for an agent had not been determined, the highest concentration tested was 10 microM.
2.3 Cell Culture. All cells were maintained in an incubator at 37 degrees C and 5% CO2 with 95% humidity. The PDC lines were cultured according to standard operating procedures established by the NCI PDMR. All PDCs were thawed and cultured in Matrigel-coated flasks prepared with a working solution of 1X Ham's F-12 nutrient mix, without supplementation (Invitrogen, cat. 11765054), 100 U/mL penicillin-streptomycin (Invitrogen, cat. 15140122), and 2.5% Matrigel (Corning Inc., cat. 354248) for the first three passages. The 857933-349-R-J2-PDC line was cultured in 6C/Colon 1B media, which includes advanced DMEM/F-12 (Thermo Fisher Scientific, cat. 12634028), 10 mM HEPES (Thermo Fisher Scientific, cat. 15630080), 1X GlutaMAX supplement (Thermo Fisher Scientific, cat. 35050061), 0.1 mg/mL primocin (InvivoGen, cat. ant-pm-2), 10% defined fetal bovine serum, heat inactivated (HyClone Laboratories Inc., cat. SH30070.03HI), 50% L-WRN conditioned media (ATCC, cat. CRL-3276), 1.25 mM N-Acetyl-L-cysteine (Sigma-Aldrich, cat. A9165), 10 mM nicotinamide (Sigma-Aldrich, cat. N0636), 1X B-27 supplement (Thermo Fisher Scientific, cat. 17504044), 1X N-2 supplement (Thermo Fisher Scientific, cat. 17502048), 10 microM Y-27632 dihydrochloride (Tocris Bioscience, cat. 1254), and 50 ng/mL human EGF recombinant protein (Thermo Fisher Scientific, cat. PHG0311). The 485176-168-R4-J1-PDC line was cultured in Panc media, which includes all 6C/Colon 1B media components plus 100 ng/mL human FGF-10 (Thermo Fisher Scientific, cat. 100-26), 500 nM SB-431542 (Selleckchem, cat. S1067), and gastrin (Tocris, cat. 3006).
[…]

[1] = second compound 0.0316 µM, first compound 0.0316 µM
[2] = second compound 0.0316 µM, first compound 0.1 µM
[3] = second compound 0.0316 µM, first compound 0.316 µM
[4] = second compound 0.0316 µM, first compound 1 µM
[5] = second compound 0.0316 µM, first compound 3.16 µM
[6] = second compound 0.0316 µM, first compound 10 µM
[7] = second compound 0.1 µM, first compound 0.0316 µM
[8] = second compound 0.1 µM, first compound 0.1 µM
[9] = second compound 0.1 µM, first compound 0.316 µM
[10] = second compound 0.1 µM, first compound 1 µM
[11] = second compound 0.1 µM, first compound 3.16 µM
[12] = second compound 0.1 µM, first compound 10 µM
[13] = second compound 0.316 µM, first compound 0.0316 µM
[14] = second compound 0.316 µM, first compound 0.1 µM
[15] = second compound 0.316 µM, first compound 0.316 µM
[16] = second compound 0.316 µM, first compound 1 µM
[17] = second compound 0.316 µM, first compound 3.16 µM
[18] = second compound 0.316 µM, first compound 10 µM
[19] = second compound 1 µM, first compound 0.0316 µM
[20] = second compound 1 µM, first compound 0.1 µM
[21] = second compound 1 µM, first compound 0.316 µM
[22] = second compound 1 µM, first compound 1 µM
[23] = second compound 1 µM, first compound 3.16 µM
[24] = second compound 1 µM, first compound 10 µM
[25] = second compound 3.16 µM, first compound 0.0316 µM
[26] = second compound 3.16 µM, first compound 0.1 µM
[27] = second compound 3.16 µM, first compound 0.316 µM
[28] = second compound 3.16 µM, first compound 1 µM
[29] = second compound 3.16 µM, first compound 3.16 µM
[30] = second compound 3.16 µM, first compound 10 µM
[31] = second compound 10 µM, first compound 0.0316 µM
[32] = second compound 10 µM, first compound 0.1 µM
[33] = second compound 10 µM, first compound 0.316 µM
[34] = second compound 10 µM, first compound 1 µM
[35] = second compound 10 µM, first compound 3.16 µM
[36] = second compound 10 µM, first compound 10 µM
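Also: spheroids exposed to compounds for 7 days.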

C=CC(=O)N1CCN(c2nc(=O)n(-c3c(C)ccnc3C(C)C)c3nc(-c4c(O)cccc4F)c(F)cc23)C(C)C1 (centres undefined) + Cc1cnc(CNC(=O)c2c(=O)c3ccc(N4CCCN(C)CC4)nc3n3c2sc2ccccc23)cn1
inactive: viability, T/C [1] 113% | viability, T/C [2] 92.9% | viability, T/C [3] 100% | viability, T/C [4] 103% | viability, T/C [5] 87.2% | viability, T/C [6] 50.9% | viability, T/C [7] 88.3% | viability, T/C [8] 90.8% | viability, T/C [9] 78.4% | viability, T/C [10] 93.2% | viability, T/C [11] 81.6% | viability, T/C [12] 55.8% | viability, T/C [13] 79.2% | viability, T/C [14] 80.4% | viability, T/C [15] 80.9% | viability, T/C [16] 82.2% | viability, T/C [17] 82.6% | viability, T/C [18] 63.4% | viability, T/C [19] 73.4% | viability, T/C [20] 63.2% | viability, T/C [21] 77.7% | viability, T/C [22] 78.1% | viability, T/C [23] 81.8% | viability, T/C [24] 66.5% | viability, T/C [25] 70.6% | viability, T/C [26] 67.5% | viability, T/C [27] 73.2% | viability, T/C [28] 66.3% | viability, T/C [29] 83.3% | viability, T/C [30] 68.9% | viability, T/C [31] 61.2% | viability, T/C [32] 65.1% | viability, T/C [33] 65.7% | viability, T/C [34] 74.5% | viability, T/C [35] 81.7% | viability, T/C [36] 68%
> 10000 nM: IC50 (second compound 0.0316 µM) | IC50 (second compound 0.1 µM) | IC50 (second compound 0.316 µM) | IC50 (second compound 1 µM) | IC50 (second compound 3.16 µM) | IC50 (second compound 10 µM)

C=CCn1c(=O)c2cnc(Nc3ccc(N4CCN(C)CC4)cc3)nc2n1-c1cccc(C(C)(C)O)n1 + CN(C)c1ccc(Nc2c3ccc(NC(=O)CCN4CCCC4)cc3nc3cc(NC(=O)CCN4CCCC4)ccc23)cc1
783 nM: IC50 (second compound 0.0316 µM)
707 nM: IC50 (second compound 0.1 µM)
< 31.6 nM: IC50 (second compound 0.316 µM) | IC50 (second compound 1 µM) | IC50 (second compound 3.16 µM) | IC50 (second compound 10 µM)
active: viability, T/C [18] 9.97% | viability, T/C [19] 3.15% | viability, T/C [20] 2.55% | viability, T/C [21] 3.78% | viability, T/C [22] 2.12% | viability, T/C [23] 1.52% | viability, T/C [24] 1.18% | viability, T/C [25] 0.41% | viability, T/C [26] 0.2% | viability, T/C [27] 0.36% | viability, T/C [28] 0.19% | viability, T/C [29] 0.51% | viability, T/C [30] 0.13% | viability, T/C [31] 0.13% | viability, T/C [32] 0.12% | viability, T/C [33] 0.54% | viability, T/C [34] 0.29% | viability, T/C [35] 0.16% | viability, T/C [36] 0.14%
inactive: viability, T/C [1] 105% | viability, T/C [2] 86.5% | viability, T/C [3] 87.6% | viability, T/C [4] 40% | viability, T/C [5] 21.3% | viability, T/C [6] 23.7% | viability, T/C [7] 106% | viability, T/C [8] 99% | viability, T/C [9] 66.8% | viability, T/C [10] 45.5% | viability, T/C [11] 24.1% | viability, T/C [12] 27.5% | viability, T/C [13] 39.8% | viability, T/C [14] 38.4% | viability, T/C [15] 36.4% | viability, T/C [16] 15.2% | viability, T/C [17] 16.5%
